{
  "source": "patent US9393311B2",
  "about": "“Intravaginal ring comprising polyurethane composition for drug delivery” (DSM IP ASSETS B.V., priority 2010, dated 2016)",
  "assay": "UC781 drug stability in compounded polyurethane after extrusion and accelerated storage",
  "assay_type": "physicochemical",
  "conditions": "4-5 week, 60° C., with and without additives",
  "from_the_text": "The drug stability in compounded lot #1100032 was also studied after extrusion and under accelerated storage conditions, with and without various antioxidants (Table 3).",
  "note": "Entries after “also recorded” stand apart in the source; their conditions may differ.",
  "data": [
    {"compound": "CC(C)=CCOc1cc(NC(=S)c2ccoc2C)ccc1Cl", "note": "[UC781]", "values": [
      {"measurement": "UC781 stability in compounded lot #1100032", "value": "Irganox is incompatible with UC781; also recorded: best stability with BHT, EDTA or without any additives"}
    ]}
  ]
}
